According to publication PMC6403271, “Characterization, mechanism of action and optimization of activity of a novel peptide-peptoid hybrid against bacterial pathogens involved in canine skin infections” (Scientific Reports, 2019):
≈ marks a conversion by molar mass, not a printed value. Entries after “also recorded” stand apart in the source; their conditions may differ. Where two headings read alike, the source gives them in different places. Marks after values point to notes of the source that are not given here. Square brackets hold non-standard residues; d marks the D form. Peptide text beside a SMILES is read from it. N(1-naphthylmethyl)Gly = O=C(O)CNCc1cccc2ccccc12; 2Nal = N[C@@H](Cc1ccc2ccccc2c1)C(=O)O; d1Nal = N[C@H](Cc1cccc2ccccc12)C(=O)O; N(4-MeBn)Gly = Cc1ccc(CNCC(=O)O)cc1; dNle = CCCC[C@@H](N)C(=O)O; Nle = CCCC[C@H](N)C(=O)O; NBuGly = CCCCNCC(=O)O

Assays:
[1] = system: S. pseudintermedius strains; type: cell-based, Staphylococcus pseudintermedius; conditions: for MIC S. pseudintermedius strain 26071 / MIC S. pseudintermedius strain 26092-2 / MIC S. pseudintermedius strain 26959 / MIC S. pseudintermedius strain 27364 / MIC S. pseudintermedius strain 27382 / MIC S. pseudintermedius strain 31524 / MIC S. pseudintermedius strain 33228 / MIC S. pseudintermedius strain 35890 / MIC S. pseudintermedius strain 37526-1 / MIC S. pseudintermedius strain 37535-1 / MIC S. pseudintermedius strain 38637: 18 h
Protocol: Activity of B1 was tested on 50P. aeruginosa isolates and 57S. pseudintermedius isolates (including 7 MRSP) that had been isolated in the diagnostic laboratory Sund Vet Diagnostik (University of Copenhagen) from various infections in dogs between 2009 and 2011. Representative MRSP (C22963), MSSA, and P. aeruginosa (26314) were used for testing the first set of B1 analogues.
For testing the selectivity of 23 and 26 against clinical isolates of S. pseudintermedius vs S. aureus the following strains were used.
MIC determination was performed by broth microdilution according to the Clinical and Laboratory Standard Institute (CLSI, M31-A3, 2008)[62]. In brief, each bacterial strain was diluted to concentration of 5 × 10^5 CFU/mL in Mueller Hinton broth II (MHB II) media (Oxoid) and added to a two-fold serial dilution of peptides and peptide-peptoid hybrids concentrations ranging from 1 to 64 µg/ml in 96-well plates (Nunc Internationals, Rochester, NY). The MICs were determined as a lowest concentration showing no visible growth after incubation for 18 hours at 37 °C. Experiments were performed in triplicates on two different days.

[2] = system: human red blood cells; type: cell-based; conditions: for EC50: red cells of human, 1 h
[3] = type: cell-based, human; conditions: human
[4] = system: MRSP C22963; type: cell-based, Staphylococcus pseudintermedius
Procedure, shortened: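 Broth microdilution per CLSI M31-A3 on canine clinical isolates plus reference MRSP C22963, MSSA and P. aeruginosa 26314; 5 × 10^5 CFU/mL in MHB II with two-fold dilutions from 1 to 64 µg/ml. MIC = lowest concentration without visible growth after 18 hours at 37 °C; triplicates on two days.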

[5] = system: MRSP C22963; assay: Time-kill kinetics, MRSP C22963; type: cell-based, Staphylococcus pseudintermedius; conditions: for time to complete killing of the MRSP strain: all tested concentrations at or above the MIC
Protocol: (§1) Time kill assays were performed in triplicate, meaning that every value is the average of three different samplings. Time–kill kinetic assays were performed using P. aeruginosa (26314), MRSP E104 and/or MRSP C22963 to determine the cell killing activity of B1 and two of its most promising analogues (compounds 23 and 26) based on prior antimicrobial susceptibility testing. The method reported by Blondeau et al.[63] was followed with minor modifications. Briefly, the assay was performed in MHB II with concentrations corresponding to 0.5, 1, 2 and 4 times the MIC of the strain. After 0, 15, 30, 60, 120, 180 and 300 min of growth, 100 μL aliquots were collected and 10-fold serially diluted. Twenty μL of cell suspension from each dilution were spotted in triplicate on blood agar plates followed by 16–18 h incubation at 37 °C and determination of colony forming units (CFU).

[6] = system: Streptococcus canis, 26740-1; type: cell-based; conditions: 18 h
Description: (§2) For antibacterial spectrum the following strains were used: Corynebacterium auriscanis, 31551, (54 C6, dog, ear, 2013); Enterococcus faecalis, 27404, (17 C7, dog, wound, 2011); Enterococcus faecium, 30951, (24 C1, dog, ear, 2013); Streptococcus canis, 26740-1, (14 H1, dog, ear, 2010); Staphylococcus aureus, 27266, (16 G9, dog, skin, 2010); Staphylococcus aureus, 27266, (16 G9, dog, skin, 2010); Staphylococcus pseudintermedius 22963, (3 B9, dog, 2007). Acinetobacter baumannii, 27065, (16 D1, dog, wound, 2010); E. coli, 30235, 23 A6, dog, wound, 2012; Klebsiella pneumoniae, 26233, (11 H5, dog, wound, 2010); Pasteurella canis, 31096, (24 C8, dog, skin, 2013); Proteus mirabilis, 25178, (9 A4, dog, ear, 2009); Pseudomonas aeruginosa 26314, 12 C5, dog, urine, 2010). MIC determination was performed by broth microdilution according to the Clinical and Laboratory Standard Institute (CLSI, […]-A3, 2008)[62]. In brief, each bacterial strain was diluted to concentration of 5 × 10^5 CFU/mL in Mueller Hinton broth II (MHB II) media (Oxoid) and added to a two-fold serial dilution of peptides and peptide-peptoid hybrids concentrations ranging from 1 to 64 μg/ml in 96-well plates (Nunc Internationals, Rochester, NY). The MICs were determined as a lowest concentration showing no visible growth after incubation for 18 hours at 37 °C. Experiments were performed in triplicates on two different days.

[7] = system: Pasteurella canis, 31096; type: cell-based
Description: as §2

[8] = system: Acinetobacter baumannii, 27065; type: cell-based; conditions: 27065, 18 h
Description: as §2

[9] = system: Klebsiella pneumoniae, 26233; type: cell-based; conditions: 26233, 18 h
Description: as §2

[10] = system: P. aeruginosa 26314; assay: Time-kill kinetics, P. aeruginosa 26314; type: cell-based, Pseudomonas aeruginosa
Protocol: as §1, with “Briefly, the assay was performed in MHB II with concentrations corresponding to 0.5, 1, 2 and 4 times the MIC of the strain.” left out

[11] = system: human red blood cells; design: method as in PMID 29534469; conditions: at 150 µM; cited from earlier work

MIC S. pseudintermedius strain 26071 [1]	MIC S. pseudintermedius strain 26092-2 [1]	MIC S. pseudintermedius strain 26959 [1]	MIC S. pseudintermedius strain 27364 [1]	MIC S. pseudintermedius strain 27382 [1]	MIC S. pseudintermedius strain 31524 [1]	MIC S. pseudintermedius strain 33228 [1]	MIC S. pseudintermedius strain 35890 [1]	MIC S. pseudintermedius strain 37526-1 [1]	MIC S. pseudintermedius strain 37535-1 [1]	MIC S. pseudintermedius strain 38637 [1]	EC50 [2]	MIC Staphylococcus pseudintermedius ([4]; 18 h)	MIC Streptococcus canis [6]	MIC Pasteurella canis ([7]; 31096, 24 C8, dog, skin, 2013)	MIC Acinetobacter baumannii [8]	MIC Klebsiella pneumoniae [9]	Structure (SMILES)	hemolysis at 1 h, 150 µM [3]	Minimum Inhibitory Concentration MRSP C22963 ([4]; Table 1)	time to complete killing of the MRSP strain [5]	also measured
4 µg/mL (≈ 3.79 µM)	4 µg/mL (≈ 3.79 µM)	4 µg/mL (≈ 3.79 µM)	2 µg/mL (≈ 1.89 µM)	2 µg/mL (≈ 1.89 µM)	32 µg/mL (≈ 30.3 µM)	2 µg/mL (≈ 1.89 µM)	4 µg/mL (≈ 3.79 µM)	4 µg/mL (≈ 3.79 µM)	16 µg/mL (≈ 15.1 µM)	8 µg/mL (≈ 7.57 µM)	63 µM	4 µg/mL (≈ 3.79 µM)	>64 µg/mL	> 64 µg/mL	>64 µg/mL	>64 µg/mL	CCCC[C@@H](NC(=O)[C@H](CCCCN)NC(=O)[C@H](CCCCN)NC(=O)[C@@H](N)CCCCN)C(=O)N[C@H](Cc1cccc2ccccc12)C(=O)N[C@H](Cc1ccccc1)C(=O)N[C@H](Cc1cccc2ccccc12)C(N)=O [Compound 26, Lys-Lys-Lys-nle-(1-Nal)ala-phe-(1-Nal)ala] (H-KKK[dNle][d1Nal][dF][d1Nal]-NH2; N-terminus assumed)	56%	4 to 8 µg/mL	≤ 2 h	time to complete killing of MRSP C22963 ([5]; 0.5x MIC): ≤ 1 h
8 µg/mL (≈ 7.57 µM)	8 µg/mL (≈ 7.57 µM)	4 µg/mL (≈ 3.79 µM)	2 µg/mL (≈ 1.89 µM)	4 µg/mL (≈ 3.79 µM)	8 µg/mL (≈ 7.57 µM)	2 µg/mL (≈ 1.89 µM)	2 µg/mL (≈ 1.89 µM)	1 to 2 µg/mL	16 µg/mL (≈ 15.1 µM)	16 µg/mL (≈ 15.1 µM)	104 µM	4 µg/mL (≈ 3.79 µM)	16 µg/mL (≈ 15.1 µM)	> 64 µg/mL	64 µg/mL (≈ 60.6 µM)	>64 µg/mL	CCCC[C@H](NC(=O)[C@H](CCCCN)NC(=O)[C@H](CCCCN)NC(=O)[C@@H](N)CCCCN)C(=O)N[C@@H](Cc1ccc2ccccc2c1)C(=O)N[C@@H](Cc1ccccc1)C(=O)N[C@@H](Cc1ccc2ccccc2c1)C(N)=O [Compound 23, Lys-Lys-Lys-Nle-(2-Nal)Ala-Phe-(2-Nal)Ala] (H-KKK[Nle][2Nal]F[2Nal]-NH2)	59%	–	≤ 2 h	complete killing of P. aeruginosa ([10]; up to highest tested concentration (8x MIC)): not able to completely kill; also recorded: not able to eliminate; Haemolysis EC10 [2]: 14 µM; Minimum Inhibitory Concentration MRSP C22963 ([4]; 18 h): 2 to 4 µg/mL

Structure (SMILES)	MIC S. pseudintermedius strain 26071 [1]	MIC S. pseudintermedius strain 26092-2 [1]	MIC S. pseudintermedius strain 26959 [1]	MIC S. pseudintermedius strain 27364 [1]	MIC S. pseudintermedius strain 27382 [1]	MIC S. pseudintermedius strain 31524 [1]	MIC S. pseudintermedius strain 33228 [1]	MIC S. pseudintermedius strain 35890 [1]	MIC S. pseudintermedius strain 37526-1 [1]	MIC S. pseudintermedius strain 37535-1 [1]	MIC S. pseudintermedius strain 38637 [1]	EC50 [2]	MIC Staphylococcus pseudintermedius ([4]; 18 h)	MIC Streptococcus canis [6]	MIC Pasteurella canis ([7]; 31096, 24 C8, dog, skin, 2013)	MIC Acinetobacter baumannii [8]	MIC Klebsiella pneumoniae [9]	hemolysis at 1 h, 150 µM [3]	Minimum Inhibitory Concentration MRSP C22963 ([4]; Table 1)	time to complete killing of the MRSP strain [5]	also measured
CCCCN(CC(=O)N[C@@H](CCCCN)C(=O)N(CC(=O)N(CC(=O)N(CC(N)=O)Cc1cccc2ccccc12)Cc1ccc(C)cc1)Cc1cccc2ccccc12)C(=O)[C@H](CCCCN)NC(=O)[C@@H](N)CCCCN [B1, Lys-Lys-(NBu)Gly-Lys-(N1-Nal)Gly-(N4-MeBn)Gly-(N1-Nal)Gly] (H-KK[NBuGly]K[N(1-naphthylmethyl)Gly][N(4-MeBn)Gly][N(1-naphthylmethyl)Gly]-NH2)	–	–	–	–	–	–	–	–	–	–	–	230 µM	2 µg/mL (≈ 1.87 µM)	4 µg/mL (≈ 3.74 µM)	–	64 µg/mL (≈ 59.8 µM)	>64 µg/mL	32%	2–4^b µg/ml	–	MICs against a panel of 57 S. pseudintermedius isolates from canine infections ([1]; irrespective of methicillin resistance (7 MRSP, 50 MSSP)): 2 to 4 µg/mL; killing of P. aeruginosa 26314 ([10]; 1x MIC, delayed re-growth): did not eliminate; time to kill P. aeruginosa 26314 ([10]; 2x MIC): 24 h; time to kill P. aeruginosa 26314 ([10]; 4x MIC): 2 h; time to kill P. aeruginosa ([10]; 8 x MIC): less than 30 min; hemolytic activity [11]: 32%; Haemolysis EC10 [2]: 64 µM; MIC Pasteurella canis ([7]; 18 h): 8 µg/mL (≈ 7.47 µM)
